Data reported in paper PMC4138991, “Building a Better Dynasore: The Dyngo Compounds Potently Inhibit Dynamin and Endocytosis” (Traffic (Copenhagen, Denmark), 2013).

How the values were obtained:
[1] = molecular target: T1, DynI (rec), full-length human dynamin I (Homo sapiens, UniProt Q05193); assay: PS-stimulated GTPase assay with recombinant dynamin I from Sf21 cells; type: biochemical; details: for IC50: DynI 20 nM, no unit in table; for DynI selectivity ratio: DynI (rec) versus DynII (rec)
T1 sequence (Q05193 1-864): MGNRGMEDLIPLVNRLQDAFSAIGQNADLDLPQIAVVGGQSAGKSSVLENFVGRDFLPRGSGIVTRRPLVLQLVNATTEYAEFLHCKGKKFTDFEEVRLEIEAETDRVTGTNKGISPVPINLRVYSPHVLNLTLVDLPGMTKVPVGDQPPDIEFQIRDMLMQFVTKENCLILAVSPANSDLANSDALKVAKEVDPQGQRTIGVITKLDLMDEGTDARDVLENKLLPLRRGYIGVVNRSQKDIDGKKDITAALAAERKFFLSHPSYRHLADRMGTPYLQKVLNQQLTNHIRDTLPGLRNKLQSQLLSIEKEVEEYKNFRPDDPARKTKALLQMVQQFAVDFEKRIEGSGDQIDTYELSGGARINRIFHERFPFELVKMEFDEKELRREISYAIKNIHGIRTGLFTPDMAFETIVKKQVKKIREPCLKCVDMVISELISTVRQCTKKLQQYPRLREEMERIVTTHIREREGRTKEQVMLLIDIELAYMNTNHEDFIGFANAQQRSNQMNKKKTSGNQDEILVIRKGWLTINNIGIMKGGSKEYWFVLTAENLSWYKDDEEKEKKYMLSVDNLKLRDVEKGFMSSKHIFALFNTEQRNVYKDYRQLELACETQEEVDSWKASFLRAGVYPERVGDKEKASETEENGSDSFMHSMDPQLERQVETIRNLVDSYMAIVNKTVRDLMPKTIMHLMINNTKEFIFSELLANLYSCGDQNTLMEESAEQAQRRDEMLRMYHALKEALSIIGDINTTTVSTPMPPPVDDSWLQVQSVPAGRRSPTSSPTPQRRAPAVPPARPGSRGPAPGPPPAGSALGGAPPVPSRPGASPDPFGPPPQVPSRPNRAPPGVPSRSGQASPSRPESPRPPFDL
Text: Recombinant dynamin I was used only for the data in Table 2. The dynamin antibodies were from: Dynamin I—in‐house YF2 antibodies, raised in rabbits against two different synthetic peptides: dynamin I 629‐647 ([…]) and dynamin I 765–778 ([…]), used at 1/2000 dilution, as previously described 53; Dynamin II—Santa Cruz (C‐18, sc‐6400, used at 1/1000) and Dynamin III—Santa Cruz (P‐13, sc‐69472, used at 1/500 dilution).
The Malachite Green colorimetric GTPase assay was as described 10. Dynamin I activity was measured in its SAI activity state or was stimulated by three different methods. As each stimulus activates dynamin to different extents, each assay required different dynamin concentrations. First, maximal dynamin activity was stimulated by sonicated PS liposomes 10. Purified dynamin I (10–20 nM, diluted in: 6 mM Tris–HCl, 20 mM NaCl and 0.01% Tween 80, pH 7.4) was incubated in 96‐well plates in GTPase buffer (5 mM Tris–HCl, 10 mM NaCl, 2 mM Mg^2+, 0.05% Tween 80, pH 7.4, 1 µg/mL leupeptin and 0.1 mM PMSF) and GTP 0.3 mM in the presence of test compound for 30 min at 37°C in a final assay volume of 150 μL. Reactions were terminated with 10 μL of 0.5 M ethylenediaminetetraacetic acid (EDTA) pH 7.4 and Malachite Green solution (40 μL: 2% w/v ammonium molybdate tetrahydrate, 0.15% w/v malachite green and 4 M HCl) was added for 5 min. Second, dynamin (20 nM) was stimulated by 10 µg/mL of taxol‐stabilized preformed bovine brain microtubules (Cytoskeleton, Inc) using the same protocol. Third, dynamin I (50 nM) was stimulated by 1 μM of recombinant growth factor receptor‐bound protein 2 (grb2), a SH3 (Src homology)‐containing protein that stimulates dynamin about 5–10 times less efficiently than liposomes or microtubules 54. The assay conditions were as described above. Finally, dynamin (500 nM) SAI activity was measured using high concentrations of dynamin, which promote its cooperative self‐assembly into rings (but not helices) 26. The final DMSO concentration in the GTPase or endocytosis assays was at most 3.3 or 1%, respectively, but typically was at 1%. The GTPase assay for dynamin I was unaffected by DMSO up to 3.3%. Compounds were dissolved as 30 mM stocks in 100% DMSO. These stock solutions can be stored at −20°C for several months. Compounds were subsequently diluted into solutions of 50% DMSO made up in 20 mM Tris–HCl pH 7.4 and diluted again into the final assay. For analysis of the kinetics of 4a inhibition, dynamin I at a final concentration of 17 nM was incubated with GTPase buffer containing PS (2 µg/mL) and varying amounts of GTP (50–250 μM) in the presence of 4a at a concentration range between 0.5 and 6 μM. […] After the Vmax and Km values were determined, the data were transformed using the Lineweaver–Burke equation, 1/v = 1/Vmax + (Km/Vmax)(1/[S]).

synaptosomes = assay: Glutamate release from synaptosomes (4-AP stimulated); type: cell-based, rat; details: 20 μM, 30 min pretreatment, 3 mM 4-AP
Experimental: Release of glutamate from synaptosomes was performed as described previously 60, with minor changes. The assay was carried out at 37°C in a Perkin Elmer LS50 fluorimeter. Control (1% DMSO) and 4a‐treated samples were incubated in the presence of the compound for 30 min prior to stimulation of glutamate release. For each sample, 1 mg of crude P2 synaptosomes was diluted in 2 mL of HEPES‐buffered Krebs‐like buffer, either containing 1 mM EGTA (zero Ca^2+) or 1 mM EGTA plus 3 mM […] (2 mM free Ca^2+). NAPD^+ (3 mM) and glutamic acid dehydrogenase (50 U) were added and allowed to incubate for 15 min to allow residual glutamate in the sample to be metabolized. 4‐AP (3 mM) was subsequently added to stimulate glutamate release, which was recorded over a 5‐min period. Readings of fluorescence were taken every 2 seconds. All treatment conditions were carried out in zero Ca^2+ and 2 mM Ca^2+ conditions with the zero Ca^2+ measurement subtracted from the 2 mM measurement for each time point. […] Each treatment was carried out in duplicate within a single experiment and each independent experiment was carried out three times on separate days using synaptosomes prepared from fresh rat brain tissue ([…]).

[2] = molecular target: microtubule-stimulated dynamin I (Ovis aries, UniProt A0ACI6PDC7); assay: Microtubule-stimulated (helical) dynamin I GTPase assay; type: biochemical, sheep; details: presence of Tween-80
Sequence of microtubule-stimulated dynamin I (A0ACI6PDC7 entry or part of it): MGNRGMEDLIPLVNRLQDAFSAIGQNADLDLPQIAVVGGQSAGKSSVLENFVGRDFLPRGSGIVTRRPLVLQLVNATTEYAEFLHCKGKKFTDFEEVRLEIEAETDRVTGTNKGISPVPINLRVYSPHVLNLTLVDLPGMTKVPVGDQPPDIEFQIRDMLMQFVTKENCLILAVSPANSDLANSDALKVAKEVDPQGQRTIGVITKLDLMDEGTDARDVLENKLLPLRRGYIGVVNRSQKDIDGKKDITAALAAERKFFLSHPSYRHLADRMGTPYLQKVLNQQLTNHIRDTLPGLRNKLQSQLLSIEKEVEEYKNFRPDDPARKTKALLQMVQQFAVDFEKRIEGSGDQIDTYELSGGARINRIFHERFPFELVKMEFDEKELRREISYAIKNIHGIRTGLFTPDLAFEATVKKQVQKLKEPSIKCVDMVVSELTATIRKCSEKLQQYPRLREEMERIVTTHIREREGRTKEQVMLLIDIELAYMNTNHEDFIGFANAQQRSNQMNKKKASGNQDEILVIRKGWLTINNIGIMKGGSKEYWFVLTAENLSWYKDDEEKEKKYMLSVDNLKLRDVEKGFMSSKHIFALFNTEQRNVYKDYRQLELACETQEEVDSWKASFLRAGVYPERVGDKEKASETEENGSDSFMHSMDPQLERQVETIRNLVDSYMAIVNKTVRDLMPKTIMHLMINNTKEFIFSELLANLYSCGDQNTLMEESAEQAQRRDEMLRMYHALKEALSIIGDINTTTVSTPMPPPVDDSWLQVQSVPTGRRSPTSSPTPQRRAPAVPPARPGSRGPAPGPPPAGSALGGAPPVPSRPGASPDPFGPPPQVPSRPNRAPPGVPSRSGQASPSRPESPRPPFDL
Experimental: (§1) The Malachite Green colorimetric GTPase assay was as described 10. Dynamin I activity was measured in its SAI activity state or was stimulated by three different methods. As each stimulus activates dynamin to different extents, each assay required different dynamin concentrations. First, maximal dynamin activity was stimulated by sonicated PS liposomes 10. Purified dynamin I (10–20 nM, diluted in: 6 mM Tris–HCl, 20 mM NaCl and 0.01% Tween 80, pH 7.4) was incubated in 96‐well plates in GTPase buffer (5 mM Tris–HCl, 10 mM NaCl, 2 mM Mg^2+, 0.05% Tween 80, pH 7.4, 1 µg/mL leupeptin and 0.1 mM PMSF) and GTP 0.3 mM in the presence of test compound for 30 min at 37°C in a final assay volume of 150 μL. Reactions were terminated with 10 μL of 0.5 M ethylenediaminetetraacetic acid (EDTA) pH 7.4 and Malachite Green solution (40 μL: 2% w/v ammonium molybdate tetrahydrate, 0.15% w/v malachite green and 4 M HCl) was added for 5 min. Second, dynamin (20 nM) was stimulated by 10 µg/mL of taxol‐stabilized preformed bovine brain microtubules (Cytoskeleton, Inc) using the same protocol. […] Finally, dynamin (500 nM) SAI activity was measured using high concentrations of dynamin, which promote its cooperative self‐assembly into rings (but not helices) 26. […] After the Vmax and Km values were determined, the data were transformed using the Lineweaver–Burke equation, 1/v = 1/Vmax + (Km/Vmax)(1/[S]).

[3] = molecular target: grb2-stimulated dynamin I (from brain) (Ovis aries, UniProt A0ACI6PDC7); assay: grb2-stimulated (ring) dynamin I GTPase assay; type: biochemical, sheep
Sequence of grb2-stimulated dynamin I (from brain) (A0ACI6PDC7 entry or part of it): as above
Experimental: as §1

Calyx of Held = test system: Calyx of Held; design: method as in PMID 18066059; details: 100 μM, 5-min preincubation; cited from earlier work

SMILES	IC50 ([1]; Absence of Tween) [µM]	DynI selectivity ratio ([1]; Absence of Tween)	IC50 ([1]; Presence of Tween) [µM]	DynI selectivity ratio ([1]; Presence of Tween)	Ca2+-dependent glutamate release (synaptosomes)	block of microtubule-stimulated dynamin activity [2]	block of grb2-SH3 stimulated ring dynamin activity ([3]; presence of Tween-80)	fold reduced activity against grb2-stimulated ring dynamin versus PS-stimulated helical dynamin ([3]; without Tween-80)	SVE at the Calyx of Held (Calyx of Held)
O=C(N/N=C/c1cc(O)c(O)cc1O)c1cc2ccccc2cc1O [4a, (E)-3-Hydroxy-N'-(2,4,5-trihydroxybenzylidene) -2-naphthohydrazide]	1.1 ± 0.2	2.1	30 ± 8.2	3.1	decrease in the release of glutamate only after 45 seconds	–	–	–	–
O=C(N/N=C/c1ccc(O)c(O)c1)c1cc2ccccc2cc1O [Dynasore, (E)-N'-(3,4-Dihydroxybenzylidene)-3-hydroxy-2-naphthohydrazide]	–	–	–	–	–	did not block	did not block	threefold less potent	inhibit SVE
